In assay [1] the target is T1, Tau K18 fragment aggregates (amino acids 244 to 372 of human Tau441) (Homo sapiens, UniProt P10636).
T1 construct: encompassing amino acids 244 to 372 of the longest isoform (2N4R) of human Tau441; host or cells: bacteria
The experiment in a line: Tau K18 disaggregation assay by ThT. The conditions noted are these: ThT fluorescence; 2 μM K18 aggregates, 30 minutes at RT. Type of assay: biochemical. As to the method: Tau K18 Disaggregation Assay by ThT
The Tau K18 fragment, encompassing amino acids 244 to 372 of the longest isoform (2N4R) of human Tau441, was expressed in bacteria and purified or bought from SignalChem. For the K18 disaggregation assay by ThT, 35 μM of recombinant K18 in PBS were aggregated for 24 hours at 37° C. in presence of 50 μM of heparin (Sigma-Aldrich) and 10 mM of DTT (Sigma-Aldrich) under shaking at 750 RPM. Compounds were dissolved in anhydrous dimethyl sulfoxide (DMSO, Sigma-Aldrich) to reach a concentration of 10 mM. K18 aggregates and serial dilutions of compounds were mixed together in PBS (volume 50 μL) to a final concentration of 2 μM of K18 aggregates and from 160 to 0.04 μM of compounds. The mixture was incubated for 30 minutes at room temperature (RT), then 40 μL of this mixture were transferred into a black 384-well plate assay (Perkin-Elmer) and mixed with 10 μL of 100 μM ThT in 250 mM glycine (both from Sigma-Aldrich) in PBS. Fluorescence (relative fluorescence units; RFU) was measured in monoplicate or duplicate on a Tecan reader (excitation: 440 nm; emission: 485 nm). Percentage of K18 disaggregation was then calculated and half maximal effective concentration (E050) was determined using GraphPad Prism version 5 (GraphPad Software) assuming a one-binding site fitting model.

For assay [2], the target named is T2, Aggregated human Tau in human neuroblastoma cell line overexpressing full-length human Tau P301L (Homo sapiens, UniProt P10636, P618L).
T2 construct: overexpressing the full-length form of human Tau carrying the P301L mutation; expressed in transfected cells; host or cells: human neuroblastoma cell line (G418 selection)
Briefly: Reduction of intracellular Tau aggregation (AlphaLISA, aggregated Tau normalized to total Tau). The assay is classed as cell-based. The conditions noted are these: compound at 5 μM, 24 h, relative to DMSO-treated cells. The method, then: Reduction of Intracellular Tau Aggregation
A human neuroblastoma cell line overexpressing the full-length form of human Tau carrying the P301L mutation was cultured in complete medium [DMEM-F12 4.5 g/L Glutamax (Invitrogen), 15% FBS (Biochrom), 1% Peni/Strep (Invitrogen) supplemented with 2.5 μg/ml of G418 (Sigma-Aldrich) selection antibiotic]. The day before the experiment 5×10^5 cells/well were plated in a 6 well plate in 3 mL of complete medium. The next day, cells were incubated with DMSO or a compound of the present invention at 5 μM for additional 24 h at 37° C. After incubation, cells were trypsinized, resupsended in 100 μl of homogenization buffer [25 mM Tris-HCl pH 7.4, 150 mM NaCl, 1 mM EDTA, 1 mM EGTA containing phosphatase inhibitors (30 mM NaF, 0.2 mM Na3VO4, 1 nM okadaic acid, 1 mM PMSF, 5 mM Na4P2O7) and protease inhibitor cocktail (Complete™, Roche)], and then physically lysed with three rapid cycles of freezing and thawing. Samples were then directly tested in the AlphaLISA assay.
Phosphorylated, aggregated, and total Tau were quantified by AlphaLisa using the following antibody pairs: • HT7-Acceptor beads+biotin (BT)-Tau13-Donor beads: Total Tau • HT7-Acceptor beads+biotin (BT)-HT7-Donor beads: Aggregated human Tau
The Tau13 (Abcam) was biotinylated using EZ-Link® NHS-PEO Solid Phase biotinylation kit (Thermo Scientific), while the HT7-biotin was from a commercial source (Thermo Scientific).
For each antibody pairs the concentration of acceptor beads and biotinylated antibodies was optimized. All samples were first tested in a dilution series in PBS in order to identify the linear range and optimal dilution for each sample and assay. For the final protocol, the following reagents were added in a 384-well white OptiPlate (PerkinElmer): • 5 μL of test diluted sample • 20 μL of the mixture biotin-mAb acceptor beads at the following final concentrations: • HT7-BT at 1.25 nM in combination with HT7-Acc beads at 10 μg/ml • Tau13-BT at 5 nM in combination with HT7-Acc beads at 2.5 μg/ml
After incubation of this mixture at room temperature for 1 h, 25 μL of Streptavidin Donor beads (Perkin Elmer) at 25 μg/mL were added in the dark. Plates were analyzed after 30 min incubation using the EnSpire Alpha instrument and EnSpire Workstation version 3.00. Data for aggregated Tau were normalized to total Tau and then expressed as percentage of the DMSO-treated cells.
(Alpha assays give light when donor and acceptor beads are brought close together.)

The target of assay [3] is T3, monomeric flTau (human Tau 2N4R; 441 amino acids) (Homo sapiens, UniProt P10636).
T3 construct: purchased Biotechne (USA); host or cells: E coli
The experiment in a line: Full-length Tau inhibition of aggregation assay by ThT (seeded with AD brain PHF). Type of assay: biochemical. The conditions noted are these: 4 μM monomeric flTau + AD brain PHF 1:200, 72 h at 37° C. As to the method: Full-Length Tau (fIT) Inhibiton of Aggregation Assay by ThT
The isoform of human Tau (2N4R; 441 amino acids) was purchased from Biotechne (USA). The protein was expressed in bacteria E coli, purified and concentrated in PBS to a final concentration of 50 μM.
To induce Tau aggregation, 4 μM of monomeric flTau was incubated for 72 hours at 37° C. under agitation cycles consisting of both orbital shaking and mixing function using the Hula Mixer (Life Technologies) with Tau paired-helical filaments (PHF) enriched from the post-mortem brain of one Alzheimer's disease (AD) patient obtained from an external source (Tissue Solutions) diluted 1:200. The enrichment procedure was modified from Jicha et al, 1997 (Journal of Neuroscience Research 48:128-132 (1997)) and Rostagno and Ghiso, 2009 (Current protocols in cell biology (2009), Chapter 3, Unit 3.33 3.33.1-33). […]
To test the capability of compounds of this invention to inhibit Tau aggregation, serial dilution of compounds in DMSO were added to the monomeric flTau/PHF mix prior incubation. […] Fluorescence was measured in monoplicate on a Tecan reader Spark using filter (excitation at 448 nm/BW 7 nm, emission at 485 nm/BW 20 nm). A dose response type of curve was obtained out to two independent experiments each with technical duplicates and the IC50 was calculated using GraphPad Prism 7.03.

Molecules are shown by their SMILES. Where only a bound is given, the exact number is not on record here.

T1 sequence (P10636 561-689): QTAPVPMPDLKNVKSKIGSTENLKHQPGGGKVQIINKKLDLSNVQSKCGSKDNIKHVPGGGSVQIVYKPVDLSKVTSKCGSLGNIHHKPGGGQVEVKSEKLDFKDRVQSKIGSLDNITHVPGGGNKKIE
T2 sequence (P10636 1-441 isoform P10636-8 P301L): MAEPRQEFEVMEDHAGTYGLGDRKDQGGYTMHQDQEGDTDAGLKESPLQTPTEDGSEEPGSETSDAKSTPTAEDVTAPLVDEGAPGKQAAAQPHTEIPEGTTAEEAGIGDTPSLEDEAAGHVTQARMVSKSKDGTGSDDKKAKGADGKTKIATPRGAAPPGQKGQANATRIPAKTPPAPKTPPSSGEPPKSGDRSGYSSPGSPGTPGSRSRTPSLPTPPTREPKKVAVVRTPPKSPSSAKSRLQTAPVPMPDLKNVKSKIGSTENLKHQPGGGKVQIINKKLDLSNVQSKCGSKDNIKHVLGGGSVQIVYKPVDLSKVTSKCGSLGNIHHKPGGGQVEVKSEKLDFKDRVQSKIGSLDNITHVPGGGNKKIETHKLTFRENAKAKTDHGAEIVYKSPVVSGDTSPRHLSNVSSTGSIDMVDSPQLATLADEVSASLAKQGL
T3 sequence (P10636 1-441 isoform P10636-8): as the sequence (P10636 1-441 isoform P10636-8 P301L) above, with L301P counted along it

As to `c1ccc2c3c([nH]c2c1)CN(c1ccc(N2CCOCC2)nc1)CC3` [Example 44], the 50% effective concentration (EC50) – broadly, the concentration at which the effect is half-maximal – in assay [1] was below 10 µM. In addition, in assay [2], the “% Reduction of intracellular Tau aggregation” value is given as “+++ (+++ % > 50)”. For the same molecule, the IC50 (in general, the concentration needed to halve the response being measured) in assay [3] stood at 0.39 µM.

In assay [1], `Cn1c2c(c3ccccc31)CCN(c1ccc(N3CCOCC3)nc1)C2` [Example 46] showed an EC50 below 10 µM. The “% Reduction of intracellular Tau aggregation” value in assay [2] is “++ (++ % 50 < x < 25)”. Further, the half-inhibitory concentration (IC50) in assay [3] was 1.2 µM.
